Read-outs that look alike come from different tables or passages of the source.
Columns and labels:
Type in all cases: in vivo
[1] = tested on: Alopecurus myosuroides (ALOMY); experiment: Glasshouse assay for herbicidal activity, pre-/post-emergence (percentage phytotoxicity); conditions: Alopecurus myosuroides, Rate 250 g/ha, 100%=total damage, 0%=no damage
Method in brief: (§1)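 Visual score (0–100% damage) at 15DAA post-em / 20DAA pre-em. Pots, std soil; treated 1 d (pre) or ~12 d (post) after sowing. 24/18 °C warm spp., 20/16 °C cool spp., 16 h light, 65% RH.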

Avena fatua (AVEFA) = experiment: as above; conditions: Avena fatua, Rate 250 g/ha, 100%=total damage, 0%=no damage
Method in brief: as §1

[2] = tested on: Echinochloa crus-galli (ECHCG); experiment: as above; conditions: Echinochloa crus-galli, Rate 250 g/ha, 100%=total damage, 0%=no damage
Method in brief: as §1

Lolium perenne (LOLPE) = experiment: as above; conditions: Lolium perenne, Rate 250 g/ha, 100%=total damage, 0%=no damage
Method in brief: as §1

wheat = experiment: Post-emergence herbicidal activity against cereal crops (wheat) +/- safener, crop selectivity; conditions: 100%=total damage to plant, 0%=no damage; for Post-emergence herbicidal activity against wheat (percentage phytotoxicity), +CQC: 250 g/ha, plus safener cloquintocet-mexyl (CQC) applied at 50 g/ha; for percent phytotoxicity (crop damage) to wheat at 250 g/ha: Triticum aestivum, 360 h, without safener, read-out: Post-emergence herbicidal activity against wheat (percentage phytotoxicity), Wheat - CQC
Method in brief: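 Test plants raised in pots in a glasshouse (24/18 °C warm or 20/16 °C cool species day/night, 16 h light, 65% humidity) and treated post-emergence about 12 days after sowing. Visual percentage phytotoxicity scored 15 days after application (0% = no damage, 100% = total damage).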

[3] = 360 h, post-emergence, visual assessment 15 DAA, read-out: Post-emergence herbicidal activity (percentage phytotoxicity), ALOMY POST
[4] = 480 h, pre-emergence, visual assessment 20 DAA, read-out: Pre-emergence herbicidal activity (percentage phytotoxicity), ALOMY PRE
[5] = post-emergence, 360 h, post-emergence, visual assessment 15 DAA, read-out: Post-emergence herbicidal activity (percentage phytotoxicity), AVEFA POST
[6] = pre-emergence, 480 h, pre-emergence, visual assessment 20 DAA, read-out: Pre-emergence herbicidal activity (percentage phytotoxicity), AVEFA PRE
[7] = post-emergence, 360 h, post-emergence, visual assessment 15 DAA, read-out: Post-emergence herbicidal activity (percentage phytotoxicity), ECHCG POST
[8] = pre-emergence, 480 h, pre-emergence, visual assessment 20 DAA, read-out: Pre-emergence herbicidal activity (percentage phytotoxicity), ECHCG PRE
[9] = post-emergence, 360 h, post-emergence, visual assessment 15 DAA, read-out: Post-emergence herbicidal activity (percentage phytotoxicity), LOLPE POST
[10] = pre-emergence, 480 h, pre-emergence, visual assessment 20 DAA, read-out: Pre-emergence herbicidal activity (percentage phytotoxicity), LOLPE PRE

Compound	pest or weed control at 250 g/ha [1, 3] [%]	pest or weed control at 250 g/ha [1, 4] [%]	pest or weed control at 250 g/ha (Avena fatua (AVEFA); [5]) [%]	pest or weed control at 250 g/ha (Avena fatua (AVEFA); [6]) [%]	pest or weed control at 250 g/ha [2, 7] [%]	pest or weed control at 250 g/ha [2, 8] [%]	pest or weed control at 250 g/ha (Lolium perenne (LOLPE); [9]) [%]	pest or weed control at 250 g/ha (Lolium perenne (LOLPE); [10]) [%]	Post-emergence herbicidal activity against wheat (percentage phytotoxicity), +CQC (wheat) [%]	percent phytotoxicity (crop damage) to wheat at 250 g/ha (wheat) [%]
Cc1cc(C)c(C2C(=O)CC(CCNC(N)=O)C2=O)c(C)c1 (stereo not shown) [Compound A6]	70	30	90	0	100	90	90	80	10	10
Cc1cc(C)c(C2C(=O)CC(CCNC(=O)NC(=O)c3ccc(C(F)(F)F)cc3)C2=O)c(C)c1 (stereo not shown) [Compound A72]	30	20	90	20	80	0	80	10	70	80
Cc1cc(C)c(C2C(=O)CC(CCNc3ccc(C(F)(F)F)cn3)C2=O)c(C)c1 (stereo not shown) [Compound A34]	90	90	90	80	100	100	90	100	70	80
Cc1cc(C)c(C2C(=O)CC(CCNC(=O)NC(=O)c3cc(F)c(Cl)cc3Cl)C2=O)c(C)c1 (stereo not shown) [Compound A65]	100	80	90	70	80	70	100	80	40	80
Cc1cc(C)c(C2C(=O)CC(CCNC(=O)NC(=O)c3ccccn3)C2=O)c(C)c1 (stereo not shown) [Compound A1, N-[2-[2,4-dioxo-3-(2,4,6-trimethylphenyl)cyclopentyl]ethylcarbamoyl]pyridine-2-carboxamide]	90	80	90	60	80	100	90	100	20	80
Cc1cc(C)c(C2C(=O)CC(CCNC(=O)Nc3ccc(F)cn3)C2=O)c(C)c1 (stereo not shown) [Compound A12]	90	90	90	90	90	100	90	90	80	90
CON=C(C)C(=O)NCCC1CC(=O)C(c2c(C)cc(C)cc2C)C1=O (stereo not shown) [Compound A39]	80	80	80	50	50	30	100	90	10	60
Cc1cc(C)c(C2C(=O)CC(CCNC(=O)Nc3ccccc3F)C2=O)c(C)c1 (stereo not shown) [Compound A45]	20	0	0	0	40	80	80	90	0	0
CON=C(C#N)C(=O)NCCC1CC(=O)C(c2c(C)cc(-n3cc(Cl)cn3)cc2C)C1=O (stereo not shown) [Compound A42]	0	0	0	0	70	0	10	0	10	0
Cc1cc(C)c(C2C(=O)CC(CCNC(=S)Nc3ccc(F)cc3)C2=O)c(C)c1 (stereo not shown) [Compound A89]	0	0	40	0	0	30	0	40	0	10
Cc1cc(C)c(C2C(=O)CC(CCNC(=O)NC(=O)c3ccccc3C)C2=O)c(C)c1 (stereo not shown) [Compound A50]	100	100	90	80	80	90	100	90	90	90
Cc1cc(C)c(C2C(=O)CC(CCNS(=O)(=O)c3ccccc3C(F)(F)F)C2=O)c(C)c1 (stereo not shown) [Compound A86]	50	20	0	20	30	60	30	60	0	20
Cc1cc(C)c(C2C(=O)CC(CCNC(=O)Nc3cc(C(C)(C)C)on3)C2=O)c(C)c1 (stereo not shown) [Compound A15]	60	70	50	50	30	70	70	70	30	40
Cc1cc(-c2ncc(Cl)cc2F)cc(C)c1C1C(=O)CC(CCNC(=O)Nc2ccccn2)C1=O (stereo not shown) [Compound A19]	90	70	100	90	100	80	100	80	80	80
Cc1cc(-n2cc(Cl)cn2)cc(C)c1C1C(=O)CC(CCNC(=O)C2=NOC(C)(C)C2)C1=O (stereo not shown) [Compound A43]	90	90	100	90	100	90	100	90	50	90
Cc1cc(C)c(C2C(=O)CC(CCNS(=O)(=O)C(C)C)C2=O)c(C)c1 (stereo not shown) [Compound A77]	80	100	80	70	70	70	80	80	10	80

Source: patent US10301295B2, “Herbicidal compounds” (Syngenta Participations AG, priority 2014, dated 2019)
